# Experimental data reported in patent publication US20030113263A1, “Methods and reagents for using mammalian melanocortin receptor antagonists to treat cachexia” (Oregon Health and Sciences University, a non-profit …, priority 2001, published 2003).
# Legend:
# [1] = target: T1, human MC-4 melanocortin receptor (Homo sapiens, UniProt P32245); assay: intracellular cAMP accumulation (adenylate cyclase coupling) in transfected human 293 cells; type: cell-based; set-up: expressed in transfected cells; settings: 293 cells expressing human MC-4 receptor, 45 min at 37° C.
# Target sequence in this assay (P32245 whole entry): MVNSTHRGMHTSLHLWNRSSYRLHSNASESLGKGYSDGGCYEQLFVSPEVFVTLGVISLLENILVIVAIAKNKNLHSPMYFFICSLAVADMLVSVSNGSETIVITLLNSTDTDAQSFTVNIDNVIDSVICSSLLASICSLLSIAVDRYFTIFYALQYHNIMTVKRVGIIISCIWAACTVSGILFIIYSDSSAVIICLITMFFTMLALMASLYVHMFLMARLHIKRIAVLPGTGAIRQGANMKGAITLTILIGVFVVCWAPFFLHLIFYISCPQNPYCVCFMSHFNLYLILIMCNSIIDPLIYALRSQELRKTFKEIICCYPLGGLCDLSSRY
# Description: Melanocortin receptor coupling to G-proteins in cells expressing the MC-4 melanocortin receptor was used analyze expression of the receptor in cell colonies transfected with the expression vectors described herein as follows. Cells (˜1×10^6) were plated in 6-well dishes, washed once with DMEM containing 1% bovine serum albumin (BSA) and 0.5mM IBMX (a phosphodiesterase inhibitor), then incubated for 45 minutes at 37° C. with varying concentrations of the melanotropic peptides. Following hormone treatment, the cells were washed twice with phosphate buffered saline and intracellular cAMP extracted by lysing the cells with 1 ml of 60% ethanol.
# [2] = target: T1, human MC-4 melanocortin receptor; assay: cell-based or functional assay
# Target sequence in this assay (P32245 other isoform, or with tags, fused parts or gaps): as the sequence (P32245 whole entry) above, with E42A, V65E, V103I, S109R, I169S, M215L, C318S, C319S counted along it
# [3] = system: LPS-induced anorexia and fever in rats; settings: central administration; cited from earlier work
# [4] = target: T1, human MC-4 melanocortin receptor; assay: antagonism of agonist-induced cAMP elevation, Schild analysis; type: cell-based; set-up: expressed in transfected cells; settings: agouti peptide approx. 60% pure; results not shown
# Target sequence in this assay (P32245 whole entry): as the sequence (P32245 whole entry) above
# Sequence of ACTH4-10 (P01189 whole entry): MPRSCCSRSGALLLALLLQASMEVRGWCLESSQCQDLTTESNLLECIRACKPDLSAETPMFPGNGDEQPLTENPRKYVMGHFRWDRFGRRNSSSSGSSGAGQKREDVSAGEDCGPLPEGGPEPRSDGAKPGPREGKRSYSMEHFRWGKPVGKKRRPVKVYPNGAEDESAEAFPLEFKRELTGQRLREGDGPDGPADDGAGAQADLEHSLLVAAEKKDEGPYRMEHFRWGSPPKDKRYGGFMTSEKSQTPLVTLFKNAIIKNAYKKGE
molecule,measurement,setting,value
CSCC[C@H](N)C(=O)N[C@@H](CCC(=O)O)C(=O)N[C@@H](Cc1c[nH]cn1)C(=O)N[C@@H](Cc1ccccc1)C(=O)N[C@@H](CCCNC(=N)N)C(=O)N[C@@H](Cc1c[nH]c2ccccc12)C(=O)NCC(=O)O [ACTH4-10],EC50,[1],> 100 nM
ACTH1-39 (from UniProt P01189 138-176) (peptide),"Ec50 (adenylate cyclase activity, intracellular cAMP accumulation in transfected 293 cells)",[2],0.68 nM
ACTH4-10 (from UniProt P01189) (peptide),"Ec50 (adenylate cyclase activity, intracellular cAMP accumulation in transfected 293 cells)",[2],> 100 nM
"Ac-Nle^4-cyclo(Asp^5, D-Nal(2)^7, Lys^10) αMSH-(4-10)-amide [SHU9119]",effect on LPS-induced fever,[3],increased
same,effect on LPS-induced suppression of food intake,[3],reversal of LPS-induced anorexia
α-melanocyte stimulating hormone [α-MSH],effect on LPS-induced fever,[3],reduced
same,effect on LPS-induced suppression of food intake,[3],significant potentiation of the suppressive effects of LPS on food intake
γ2-MSH (from UniProt P01189 77-88) (peptide),"Ec50 (adenylate cyclase activity, intracellular cAMP accumulation in transfected 293 cells)",[2],> 100 nM
"agouti: murine agouti peptide produced using a baculovirus system, approximately 60% pure (protein) HLALEETLGDDRSLRSNSSMNSLDFSSVSIVALNKKSKKISRKEAEKRKRSSKKKASMKKVARPPPPSPCVATRDSCKPPAPACCDPCASCQCRFFGSACTCRVLNPNC",competition of α-MSH activation of human MC-4 melanocortin receptors,[4],Specific competition
